Data published in ChEMBL document CHEMBL1201862, “PubChem BioAssay data set” (2004).
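Dose response: 5 concentrations. Exposure: 48 h. Format: 96-well plates. Endpoint: linear interpolation; highest concentration if not reached. GI50 = concentration required for 50% inhibition of growth.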 Calls of active or inactive are those of the source. Rule as the data show it: active = GI50 up to about 1.1 µM and inactive = higher.

Key:
Test in all cases: NCI-60 cell line screen, 48 h
[1] = tested on: A498
[2] = tested on: A549
[3] = tested on: COLO 205
[4] = tested on: DMS-114
[5] = tested on: IGROV-1
[6] = tested on: K562
[7] = tested on: LOX IMVI
[8] = tested on: MOLT-4
[9] = tested on: NCI-H522
[10] = tested on: OVCAR-8
[11] = tested on: RPMI-8226
[12] = tested on: SK-MEL-28
[13] = tested on: SK-MEL-5
[14] = tested on: SK-OV-3
[15] = tested on: SNB-19
[16] = tested on: SR
[17] = tested on: HCC 2998

Measured: GI50

COC(=O)C1=C(C(=O)OC)N(C(C)C)[C@H]2C(C(=O)OC)=C(C(=O)OC)N(C(C)C)[C@@H]12
inactive: [1] > 100 µM | [2] > 100 µM | [3] > 100 µM | [4] > 100 µM | [5] > 100 µM | [6] > 100 µM | [7] > 100 µM | [8] 71 µM | [9] > 100 µM | [10] > 100 µM | [11] 84.1 µM | [12] > 100 µM | [13] > 100 µM | [14] > 100 µM | [15] > 100 µM | [16] 48 µM

O=C(NC12CC3CC(CC(C3)C1)C2)C(=O)c1c[nH]c2ccc(Cl)cc12
inactive: [2] > 100 µM | [3] 81.8 µM | [4] 66.8 µM | [17] 32.9 µM | [5] 54.1 µM | [6] 3.8 µM | [7] 10.1 µM | [8] 7.89 µM | [9] 85.5 µM | [11] 19.9 µM | [12] 35.4 µM | [13] 42.2 µM | [14] 32.7 µM | [15] 26.8 µM | [16] 54.5 µM

CN1C(=O)CC(c2cccc(C3CC(=O)N(C)C3=O)n2)C1=O (configuration not stated)
inactive: [1] > 100 µM | [2] > 100 µM | [3] > 100 µM | [4] > 100 µM | [17] > 100 µM | [5] > 100 µM | [6] > 100 µM | [7] > 100 µM | [8] > 100 µM | [9] > 100 µM | [10] > 100 µM | [12] > 100 µM | [13] > 100 µM | [14] > 100 µM | [15] > 100 µM | [16] > 100 µM

CN1N=C2c3ccccc3OC(c3ccccc3)[C@H]2C1c1ccccc1 (some centres not stated)
inactive: [1] > 100 µM | [2] 72.9 µM | [3] > 100 µM | [4] 44.1 µM | [17] 56.1 µM | [5] 90.8 µM | [6] 88.1 µM | [7] > 100 µM | [8] 35.2 µM | [9] 22.5 µM | [10] > 100 µM | [11] 89.7 µM | [12] > 100 µM | [14] > 100 µM | [15] > 100 µM | [16] > 100 µM

C=C(C)C1C/C=C(/C)CCCC2(CCC3=C(CC(C(=C)C)C/C=C(/C)CCC3)O2)C(=O)C1 (configuration not stated)
inactive: [1] > 100 µM | [2] > 100 µM | [3] > 100 µM | [4] > 100 µM | [17] > 100 µM | [5] > 100 µM | [6] > 100 µM | [7] > 100 µM | [8] > 100 µM | [9] > 100 µM | [10] > 100 µM | [11] > 100 µM | [12] > 100 µM | [14] > 100 µM | [15] > 100 µM | [16] > 100 µM

O=C(CC1(O)C(=O)Nc2c(Cl)ccc(Cl)c21)c1ccc2ccccc2c1 (configuration not stated)
inactive: [1] 16.3 µM | [2] 18.3 µM | [3] 14.9 µM | [4] 5.78 µM | [17] 13.1 µM | [5] 14.3 µM | [6] 2.35 µM | [7] 11.2 µM | [8] 10.8 µM | [9] 2.88 µM | [10] 15.5 µM | [11] 6.75 µM | [12] 14.8 µM | [13] 5.65 µM | [14] 11.9 µM | [15] 16.1 µM | [16] 3.21 µM

O=C1CNC(=O)c2[nH]cnc2N1
inactive: [1] > 100 µM | [2] > 100 µM | [3] > 100 µM | [4] > 100 µM | [17] > 100 µM | [5] > 100 µM | [6] 82.6 µM | [7] > 100 µM | [8] > 100 µM | [10] > 100 µM | [11] > 100 µM | [12] > 100 µM | [13] > 100 µM | [14] > 100 µM | [15] > 100 µM | [16] > 100 µM

C=C(C)C1CC=C(C)C(O)([C@@]2(O)C[C@H](C(=C)C)CC=C2C)C1 (some centres not stated)
inactive: [1] 23.8 µM | [2] 29.7 µM | [4] 37.3 µM | [17] 16.4 µM | [5] 16.6 µM | [6] 22.2 µM | [7] 13.9 µM | [8] 17.8 µM | [9] 12.6 µM | [10] 17.2 µM | [11] 20.5 µM | [12] 28.3 µM | [13] 14.8 µM | [14] 27.2 µM | [15] 32.1 µM | [16] 21.7 µM

O=c1ncccn1[C@@H]1O[C@H](CO)[C@H](O)C1O (some centres not stated)
inactive: [1] > 100 µM | [2] > 89.5 µM | [3] > 88.7 µM | [4] > 100 µM | [17] 40.9 µM | [5] > 100 µM | [6] 52.4 µM | [7] > 61.8 µM | [8] 61.7 µM | [9] > 88.5 µM | [10] > 74.5 µM | [11] > 74.5 µM | [12] > 100 µM | [13] > 100 µM | [14] > 100 µM | [15] > 100 µM | [16] 43.6 µM

CCOc1ccccc1N1C(=O)C(=O)C(c2nc3ccccc3o2)C(=O)C1=O
inactive: [1] 48.6 µM | [2] 48.6 µM | [3] > 100 µM | [4] > 100 µM | [17] > 100 µM | [5] > 100 µM | [6] > 100 µM | [7] > 100 µM | [8] > 100 µM | [9] > 100 µM | [10] 70.5 µM | [11] > 100 µM | [12] > 100 µM | [13] > 100 µM | [14] 28.6 µM | [15] > 100 µM | [16] > 100 µM

COC1=CC(=O)c2ccc(C(C)C)cc2C1(C)C1=NC(C)(C)CO1 (configuration not stated)
inactive: [2] > 100 µM | [3] > 100 µM | [4] > 100 µM | [5] > 100 µM | [6] 76 µM | [8] 81.7 µM | [9] 77.4 µM | [10] > 100 µM | [11] 41.4 µM | [12] > 100 µM | [13] > 100 µM | [14] > 100 µM | [15] > 100 µM | [16] 86.3 µM

CC(=O)NC(CCCCNC(=O)N(C)N=O)C(=O)NCc1ccccc1 (configuration not stated)
inactive: [1] > 100 µM | [2] > 100 µM | [3] > 100 µM | [4] > 100 µM | [17] > 100 µM | [5] > 100 µM | [6] > 100 µM | [7] > 100 µM | [8] > 100 µM | [9] > 100 µM | [10] > 100 µM | [11] > 100 µM | [12] > 100 µM | [13] > 100 µM | [14] > 100 µM | [15] > 100 µM
